{
  "source": "paper PMC6677754",
  "about": "“In silico design and optimization of selective membranolytic anticancer peptides” (Scientific Reports, 2019)",
  "key": {"[1]": {"tested_on": "MCF7 breast adenocarcinoma cell line", "experiment": "Cell viability assay (MTT)", "format": "cell-based, human", "details": "10^4 cells per well, 24 h with peptide, 2-fold dilution series from 100 µM in DMEM, absorbance 540 nm, mean ± std, N = 3", "procedure": "(§1) 10% fetal bovine serum and 1% penicillin-streptomycin (Thermo Fisher Scientific, Waltham, MA, USA). The cultures were kept at 37°C in a 5% CO2 atmosphere incubator (Thermo Fisher Scientific, Waltham, MA, USA) and split every two to three days to new culture flasks. Cells no older than 20 passages were used for experiments.\n(§2) For splitting, the cell culture media was aspirated, the cells were washed with 0.01 M phosphate buffered saline (PBS, Gibco, Thermo Fisher Scientific, Waltham, MA, USA) and trypsin-EDTA (trypsin - ethylene diamine tetraacetic acid, Fisher scientific, UK) was added to the cell layer to detach them from the flask surface. After incubation for 2 min at 37°C, cells were resuspended with an equal volume of DMEM media and centrifuged at 310 g for 5 min at 4°C. After removal of the supernatant the cells were resuspended in DMEM cell media and split into new cell culture flasks at a 1/3 to 1/5 ratio.\n(§3) Determination of the anticancer peptides half effective concentration (EC50) was performed by a 3-(4,5-dimethylthiazol-2-yl)-2,5-diphenyltetrazolium bromide (MTT) assay, as described elsewhere21. Briefly, […] were seeded in each well of a 96-well plate and left to adhere and […]\n(§4) sulfoxide (DMSO, Fisher Scientific, UK) at an intermediate concentration of 1 mM. The peptides were then diluted in a 2-fold dilution series starting at 100 μM with DMEM culture media. Cells were incubated with the peptide solutions for 24 h. After this time, the cell media was removed and the cells were incubated for 1 h with a 0.5 mg mL−1 MTT solution to allow enough time for formazan crystal formation (Sigma Aldrich, Steinheim, Germany). The supernatant was removed and 100 μL of DMSO were added into each well to resuspend the formazan crystals.\n(§5) After manually shaking the plates to completely dissolve the crystals, the absorbance was measured at 540 nm in a Tecan Infinity M1000 spectrophotometer. The cell viability was determined based on the quantification of the color intensity in each culture well, considering the absorbance obtained by the control media without peptides as a 100% survival. The resultant sigmoidal curves were analyzed with the drc22 R package using a log-logistic model"}, "[2]": {"tested_on": "A549 lung adenocarcinoma cell line", "experiment": "Cell viability assay (MTT)", "format": "cell-based, human", "procedure": "as §1, §2, §3, §4, §5"}, "[3]": {"details": "MTT, 10^4 cells per well, 24 h with peptide, 2-fold dilution series from 100 µM in DMEM, absorbance 540 nm, mean ± std, N = 3, read-out: A549 EC50/µM"}},
  "note": "Like-named read-outs stand apart in the source and are kept apart here. Peptide text beside a SMILES is read from it.",
  "data": [
    {"smiles": "CC[C@H](C)[C@H](NC(=O)[C@H](CC(C)C)NC(=O)[C@H](CCCCN)NC(=O)[C@H](CC(C)C)NC(=O)[C@@H](NC(=O)[C@H](C)NC(=O)CNC(=O)[C@H](C)NC(=O)[C@H](CC(C)C)NC(=O)[C@H](CCCCN)NC(=O)CNC(=O)[C@H](CC(C)C)NC(=O)[C@H](CCCCN)NC(=O)[C@@H](NC(=O)[C@H](Cc1c[nH]c2ccccc12)NC(=O)[C@H](CC(C)C)NC(=O)[C@@H](N)Cc1ccccc1)[C@@H](C)CC)C(C)C)C(=O)N[C@@H](CC(C)C)C(=O)NCC(=O)N[C@@H](CC(C)C)C(=O)N[C@@H](CCCCN)C(=O)N[C@@H](CCCCN)C(=O)N[C@H](C(=O)N[C@H](C(N)=O)C(C)C)C(C)C", "note": "[Helical1] (H-FLWIKLGKLAGAVLKLILGLKKVV-NH2)", "values": [
      {"measurement": "EC50", "setting": "[1]", "value": "4.4 ± 1.3", "unit": "µM"},
      {"measurement": "EC50", "setting": "[2]; [3]", "value": "8.3 ± 2", "unit": "µM"}
    ]},
    {"smiles": "CC[C@H](C)[C@H](NC(=O)[C@@H](NC(=O)[C@H](CC(C)C)NC(=O)[C@@H](NC(=O)[C@H](CC(N)=O)NC(=O)[C@H](CCC(=O)O)NC(=O)[C@H](Cc1ccccc1)NC(=O)[C@H](CC(N)=O)NC(=O)[C@H](CC(=O)O)NC(=O)[C@@H](NC(=O)[C@@H](NC(=O)[C@@H](N)CCCCN)C(C)C)C(C)C)[C@@H](C)CC)[C@@H](C)CC)C(N)=O", "note": "[Gradient3] (H-KVVDNFENILII-NH2; N-terminus assumed)", "values": [
      {"measurement": "EC50", "setting": "[1]", "value": "> 50", "unit": "µM"},
      {"measurement": "EC50", "setting": "[2]; [3]", "value": "> 50", "unit": "µM"}
    ]},
    {"smiles": "CC[C@H](C)[C@H](NC(=O)[C@H](CC(N)=O)NC(=O)[C@@H]1CCCN1C(=O)[C@@H](NC(=O)[C@H](C)NC(=O)[C@H](C)NC(=O)[C@H](CC(N)=O)NC(=O)[C@@H](NC(=O)[C@@H](N)CCCNC(=N)N)C(C)C)[C@@H](C)CC)C(=O)N[C@H](C(=O)N[C@H](C(N)=O)C(C)C)[C@@H](C)CC", "note": "[Gradient4] (H-RVNAAIPNIIV-NH2; N-terminus assumed)", "values": [
      {"measurement": "EC50", "setting": "[1]", "value": "> 50", "unit": "µM"},
      {"measurement": "EC50", "setting": "[2]; [3]", "value": "> 50", "unit": "µM"}
    ]},
    {"smiles": "CC[C@H](C)[C@H](NC(=O)[C@H](C)NC(=O)[C@H](Cc1c[nH]c2ccccc12)NC(=O)[C@H](CC(C)C)NC(=O)CN)C(=O)N[C@@H](C)C(=O)N[C@H](C(=O)N[C@@H](CCCCN)C(=O)N[C@@H](C)C(=O)NCC(=O)N[C@@H](CCCCN)C(=O)N[C@H](C(=O)N[C@H](C(=O)N[C@@H](CC(C)C)C(=O)N[C@@H](CCCCN)C(=O)N[C@@H](CC(C)C)C(=O)N[C@H](C(=O)N[C@H](C(=O)N[C@@H](Cc1ccccc1)C(=O)N[C@H](C(=O)N[C@@H](Cc1c[nH]c2ccccc12)C(=O)N[C@H](C(=O)N[C@@H](CCCNC(=N)N)C(=O)N[C@H](C(N)=O)C(C)C)[C@@H](C)CC)[C@@H](C)CC)C(C)C)[C@@H](C)CC)[C@@H](C)CC)C(C)C)C(C)C", "note": "[Helical2] (H-GLWAIAVKAGKVILKLIVFIWIRV-NH2; N-terminus assumed)", "values": [
      {"measurement": "EC50", "setting": "[1]", "value": "> 50", "unit": "µM"},
      {"measurement": "EC50", "setting": "[2]; [3]", "value": "> 50", "unit": "µM"}
    ]},
    {"smiles": "CC[C@H](C)[C@H](NC(=O)[C@H](CC(=O)O)NC(=O)[C@H](CC(C)C)NC(=O)[C@H](CC(C)C)NC(=O)CN)C(=O)N[C@@H](C)C(=O)NCC(=O)NCC(=O)N[C@@H](CC(N)=O)C(=O)N[C@@H](C)C(=O)N[C@@H](CCC(=O)O)C(=O)N[C@H](C(=O)N[C@@H](CC(C)C)C(=O)N[C@@H](C)C(=O)NCC(=O)N[C@@H](Cc1c[nH]cn1)C(=O)N[C@@H](C)C(=O)N[C@H](C(N)=O)C(C)C)[C@@H](C)O", "note": "[Helical3] (H-GLLDIAGGNAETLAGHAV-NH2; N-terminus assumed)", "values": [
      {"measurement": "EC50", "setting": "[1]", "value": "> 50", "unit": "µM"},
      {"measurement": "EC50", "setting": "[2]; [3]", "value": "> 50", "unit": "µM"}
    ]},
    {"smiles": "CC[C@H](C)[C@H](NC(=O)[C@H](Cc1c[nH]c2ccccc12)NC(=O)[C@@H](NC(=O)[C@H](CCCNC(=N)N)NC(=O)[C@@H](NC(=O)[C@H](Cc1c[nH]c2ccccc12)NC(=O)[C@@H](N)CCCCN)C(C)C)[C@@H](C)CC)C(=O)N[C@@H](CCCCN)C(=O)N[C@H](C(=O)N[C@@H](CC(C)C)C(=O)N[C@@H](CCCNC(=N)N)C(=O)NCC(=O)N[C@@H](CC(C)C)C(=O)N[C@@H](Cc1ccccc1)C(=O)N[C@H](C(=O)N[C@@H](Cc1c[nH]c2ccccc12)C(=O)N[C@H](C(=O)N[C@@H](Cc1c[nH]c2ccccc12)C(=O)N[C@@H](Cc1ccccc1)C(=O)N[C@@H](Cc1ccccc1)C(N)=O)C(C)C)C(C)C)C(C)C", "note": "[Gradient1] (H-KWVRIWIKVLRGLFVWVWFF-NH2; N-terminus assumed)", "values": [
      {"measurement": "EC50", "setting": "[1]", "value": "> 50", "unit": "µM"},
      {"measurement": "EC50", "setting": "[2]; [3]", "value": "> 50", "unit": "µM"}
    ]},
    {"smiles": "CC[C@H](C)[C@H](NC(=O)[C@@H](NC(=O)[C@H](CC(=O)O)NC(=O)[C@H](Cc1ccccc1)NC(=O)[C@H](CC(C)C)NC(=O)CN)C(C)C)C(=O)NCC(=O)N[C@@H](CO)C(=O)N[C@@H](CCC(N)=O)C(=O)N[C@@H](C)C(=O)NCC(=O)NCC(=O)N[C@@H](C)C(=O)N[C@@H](C)C(=O)N1CCC[C@H]1C(=O)N[C@@H](Cc1c[nH]cn1)C(=O)N[C@@H](Cc1ccccc1)C(=O)N[C@@H](CC(C)C)C(=O)NCC(N)=O", "note": "[Helical4] (H-GLFDVIGSQAGGAAPHFLG-NH2; N-terminus assumed)", "values": [
      {"measurement": "EC50", "setting": "[1]", "value": "> 50", "unit": "µM"},
      {"measurement": "EC50", "setting": "[2]; [3]", "value": "> 50", "unit": "µM"}
    ]},
    {"smiles": "CC[C@H](C)[C@H](NC(=O)[C@H](CO)NC(=O)[C@H](CCC(N)=O)NC(=O)[C@H](CC(C)C)NC(=O)[C@H](CCCNC(=N)N)NC(=O)[C@H](CCCCN)NC(=O)[C@H](CCCNC(=N)N)NC(=O)[C@H](CC(C)C)NC(=O)CNC(=O)[C@H](CC(N)=O)NC(=O)[C@H](CCC(=O)O)NC(=O)[C@@H](NC(=O)[C@@H](N)CCCNC(=N)N)[C@@H](C)CC)C(=O)N[C@@H](Cc1ccc(O)cc1)C(=O)N[C@@H](CCCNC(=N)N)C(=O)N[C@@H](Cc1c[nH]cn1)C(=O)N[C@@H](CC(C)C)C(=O)N[C@@H](CCC(=O)O)C(=O)N[C@@H](CCC(=O)O)C(N)=O", "note": "[AmphiArc4] (H-RIENGLRKRLQSIYRHLEE-NH2; N-terminus assumed)", "values": [
      {"measurement": "EC50", "setting": "[1]", "value": "> 50", "unit": "µM"},
      {"measurement": "EC50", "setting": "[2]; [3]", "value": "> 50", "unit": "µM"}
    ]},
    {"smiles": "CC[C@H](C)[C@H](NC(=O)[C@H](Cc1ccc(O)cc1)NC(=O)[C@H](CC(N)=O)NC(=O)[C@H](CC(C)C)NC(=O)[C@H](CCC(=O)O)NC(=O)[C@H](CCC(=O)O)NC(=O)[C@H](CCCCN)NC(=O)[C@@H](NC(=O)[C@H](CO)NC(=O)[C@H](Cc1c[nH]cn1)NC(=O)[C@H](CCCNC(=N)N)NC(=O)[C@H](Cc1ccccc1)NC(=O)[C@H](C)N)C(C)C)C(=O)N[C@@H](CCCNC(=N)N)C(=O)N[C@@H](CCCNC(=N)N)C(=O)N[C@@H](CCCNC(=N)N)C(=O)N[C@@H](CC(C)C)C(=O)N[C@@H](CCC(=O)O)C(=O)N[C@@H](CCCNC(=N)N)C(=O)N[C@@H](Cc1ccccc1)C(=O)N1CCC[C@H]1C(=O)N[C@@H](CC(N)=O)C(=O)N[C@@H](CCCNC(=N)N)C(=O)N[C@@H](CC(C)C)C(N)=O", "note": "[AmphiArc3] (H-AFRHSVKEELNYIRRRLERFPNRL-NH2; N-terminus assumed)", "values": [
      {"measurement": "EC50", "setting": "[1]", "value": "> 50", "unit": "µM"},
      {"measurement": "EC50", "setting": "[2]; [3]", "value": "> 50", "unit": "µM"}
    ]},
    {"smiles": "CC[C@H](C)[C@H](NC(=O)[C@H](CCCNC(=N)N)NC(=O)[C@H](CCCCN)NC(=O)[C@H](CC(C)C)NC(=O)[C@H](Cc1c[nH]c2ccccc12)NC(=O)[C@H](C)N)C(=O)N[C@@H](CCCCN)C(=O)N[C@@H](CCCCN)C(=O)N[C@@H](Cc1ccccc1)C(=O)N[C@@H](CC(C)C)C(=O)N[C@@H](CCCCN)C(=O)N[C@@H](C)C(=O)N[C@@H](CC(C)C)C(=O)N[C@@H](Cc1ccccc1)C(=O)N[C@@H](Cc1c[nH]c2ccccc12)C(=O)N[C@H](C(=O)N[C@@H](Cc1c[nH]c2ccccc12)C(=O)N[C@H](C(=O)N[C@@H](Cc1c[nH]c2ccccc12)C(N)=O)C(C)C)C(C)C", "note": "[Gradient2] (H-AWLKRIKKFLKALFWVWVW-NH2)", "values": [
      {"measurement": "EC50", "setting": "[1]", "value": "19 ± 1.8", "unit": "µM"},
      {"measurement": "EC50", "setting": "[2]; Fig. S11, experimental replicate 1 (top panel), fit value (error in brackets), N = 6 technical replicates, MTT 24 h, read-out: EC50", "value": 107, "unit": "µM"},
      {"measurement": "EC50", "setting": "[2]; Fig. S11, experimental replicate 2 (middle panel), fit value (error in brackets), N = 6 technical replicates, MTT 24 h, read-out: EC50", "value": 152, "unit": "µM"},
      {"measurement": "EC50", "setting": "[2]; Fig. S11, experimental replicate 3 (bottom panel), fit value (error in brackets), N = 6 technical replicates, MTT 24 h, read-out: EC50", "value": 487, "unit": "µM"},
      {"measurement": "EC50", "setting": "[2]; [3]", "value": "> 50", "unit": "µM"}
    ]}
  ]
}
